Experimental findings from patent US20140057915A1, “KINASE INHIBITORS” (TOPIVERT PHARMA LIMITED, priority 2012, published 2014) are described below.

SMILES strings stand for the structures.

Data set [1] concerns ICAM-1 expression, BEAS2B cells. The data set is described as follows: Poly I:C-induced ICAM-1 expression in BEAS2B cells. Format: cell-based. The note with it: Homo sapiens, BEAS-2B; read-out: Poly IC induced ICAM1 in BEAS2B, IC50. As to the method:
(f) Poly I:C-Induced ICAM-1 Expression in BEAS2B Cells
Poly I:C is used in these studies as a simple, RNA virus mimic. Poly I:C-Oligofectamine mixture (1 μg/mL Poly I:C, ±2% Oligofectamine, 25 μL; Invivogen Ltd., San Diego, Calif., and Invitrogen, Carlsbad, Calif., respectively) is transfected into BEAS2B cells (human bronchial epithelial cells, ATCC). Cells are pre-incubated with final concentrations of test compounds for 2 hr and the level of ICAM1 expression on the cell surface is determined by cell-based ELISA. At a time point 18 hr after poly I:C transfection, cells are fixed with 4% formaldehyde in PBS (100 μL) and then endogenous peroxidase is quenched by the addition of washing buffer (100 μL, 0.05% Tween in PBS: PBS-Tween) containing 0.1% sodium azide and 1% hydrogen peroxide. Cells are washed with wash-buffer (3×200 μL). and after blocking the wells with 5% milk in PBS-Tween (100 μL) for 1 hr, the cells are incubated with anti-human ICAM-1 antibody (50 μL; Cell Signalling Technology, Danvers, Mass.) in 1% BSA PBS overnight at 4° C.
The cells are washed with PBS-Tween (3×200 μL) and incubated with the secondary antibody (100 μL; HRP-conjugated anti-rabbit IgG, Dako Ltd., Glostrup, Denmark). […] The ICAM-1 signal is detected by reading the absorbance at 450 nm against a reference wavelength of 655 nm using a spectrophotometer. The cells are then washed with PBS-Tween (3×200 μL) and total cell numbers in each well are determined by reading absorbance at 595 nm after Crystal Violet staining (50 μL of a 2% solution in PBS) and elution by 1% SDS solution (100 μL) in distilled water. The measured OD 450-655 readings are corrected for cell number by dividing with the OD595 reading in each well. The inhibition of ICAM-1 expression is calculated at each concentration of test compound by comparison with vehicle control.

The target of the next data set is Syk (Homo sapiens, UniProt P43405). Kind of data set: Syk enzyme inhibition (FRET). The format is biochemical. The note with it: Table 4a1. Here is the method:
(§1) The enzyme inhibitory activities of compounds disclosed herein are determined by FRET using synthetic peptides labelled with both donor and acceptor fluorophores (Z-LYTE, Invitrogen Ltd., Paisley, UK).
(§2) The relevant enzyme (3000 ng/mL or 2000 ng/mL respectively, 2.5 μL) is incubated with the test compound (either 4 μg/mL, 0.4 μg/mL, 0.04 μg/mL, or 0.004 μg/mL, 2.5 μL each) for 2 hr at RT. The FRET peptides (8 μM, 2.5 μL), and appropriate ATP solutions (2.5 μL, 800 μM for c-Src, and 60 μM ATP for Syk) are then added to the enzymes/compound mixtures and incubated for 1 hr. Development reagent (protease, 5 μL) is added for 1 hr prior to detection in a fluorescence microplate reader (Varioskan® Flash, ThermoFisher Scientific).
(§3) In all cases, the site-specific protease cleaves non-phosphorylated peptide only and eliminates the FRET signal. Phosphorylation levels of each reaction are calculated using the ratio of coumarin emission (donor) over fluorescein emission (acceptor), for which high ratios indicate high phosphorylation and low ratios indicate low phosphorylation levels.

A further data set addresses cSrc (Homo sapiens, UniProt P12931). The data set is described as follows: c-Src enzyme inhibition (FRET). The format is biochemical. The note with it: Table 4a1. Here is the method: as §1, §2, §3
In a further data set the target is GSK3α (Homo sapiens, UniProt P49840). Kind of data set: GSK 3α enzyme inhibition (FRET), Method 1. The format is biochemical. Particulars: Table 4a1. As to the method: as §1
Sequence of GSK3α (P49840 whole entry): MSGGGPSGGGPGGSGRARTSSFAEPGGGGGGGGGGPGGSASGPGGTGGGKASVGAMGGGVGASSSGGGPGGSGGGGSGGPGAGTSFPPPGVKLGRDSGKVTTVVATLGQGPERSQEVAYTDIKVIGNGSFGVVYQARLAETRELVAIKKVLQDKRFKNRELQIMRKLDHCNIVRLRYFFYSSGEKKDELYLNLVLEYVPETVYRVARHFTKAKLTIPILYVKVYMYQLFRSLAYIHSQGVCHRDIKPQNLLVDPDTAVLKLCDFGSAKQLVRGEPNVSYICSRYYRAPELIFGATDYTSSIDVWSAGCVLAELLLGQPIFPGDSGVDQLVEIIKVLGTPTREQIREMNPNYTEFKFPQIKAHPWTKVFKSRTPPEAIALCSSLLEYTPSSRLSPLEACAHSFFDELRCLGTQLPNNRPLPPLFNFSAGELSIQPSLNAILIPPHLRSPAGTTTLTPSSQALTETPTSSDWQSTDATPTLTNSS
The following two assay variants are used for determination of GSK 3a inhibition.
The inhibitory activities of compounds of the invention against the GSK 3a enzyme isoform (Invitrogen), are evaluated by determining the level of activation/phosphorylation of the target peptide. The GSK3-α protein (500 ng/mL, 2.5 μL) is mixed with the test compound (2.5 μL at either 4 μg/mL, 0.4 μg/mL, 0.04 μg/mL, or 0.004 μg/mL) for 2 hr at RT. The FRET peptide (8 μM, 2.5 μL), which is a phosphorylation target for GSK3α, and ATP (40 μM, 2.5 μL) are then added to the enzyme/compound mixture and the resulting mixture incubated for 1 hr. Development reagent (protease, 5 μL) is added for 1 hr prior to detection in a fluorescence microplate reader (Varioskan® Flash, ThermoFisher Scientific).
as §3

The subject of data set [2] is TNFα release, d-U937 cells. Kind of data set: LPS-induced TNFα release in d-U937 cells. Format: cell-based. The note with it: Homo sapiens, dU937; relative to 10 μg/mL BIRB796; Table 4c1; read-out: LPS Induced Release of Cytokine in d-U937 Cells, TNFα REC50. As to the method:
(§4) (a) LPS-Induced TNFα/IL-8 Release in d-U937Cells
U937 cells, a human monocytic cell line, are differentiated into macrophage-type cells by incubation with PMA (100 ng/mL) for 48 to 72 hr. Cells are pre-incubated with final concentrations of test compound for 2 hr and are then stimulated with LPS (0.1 μg/mL; from E. Coli: 0111:B4, Sigma) for 4 hr. The supernatant is collected for determination of TNFα and IL-8 concentrations by sandwich ELISA (Duo-set, R&D systems). […] The relative 50% effective concentration (REC50) is determined from the resultant concentration-response curve. The inhibition of IL-8 production is calculated at each concentration of test compound by comparison with vehicle control.

In data set [3] the test system is IL-8 release, d-U937 cells. Kind of data set: LPS-induced IL-8 release in d-U937 cells. Format: cell-based. Particulars: Homo sapiens, dU937; Table 4c1; read-out: LPS Induced Release of Cytokine in d-U937 Cells, IL-8 IC50. As to the method:
as §4
U937 cells, a human monocytic cell line, are differentiated into macrophage-type cells by incubation with PMA (100 ng/mL) for 48 to 72 hr. Cells are pre-incubated with final concentrations of test compound for 2 hr and are then stimulated with LPS (0.1 μg/mL; from E. Coli: 0111:B4, Sigma) for 4 hr. […] The relative 50% effective concentration (REC50) is determined from the resultant concentration-response curve.

The subject of the next data set is d-U937 cells. The data set is described as follows: Cell viability: MTT assay. The format is cell-based, human. The note with it: 1 μg/mL. As to the method: (l) The Effect of Test Compounds on Cell Viability: MTT Assay
Differentiated U937 cells are pre-incubated with each test compound (final concentration 1 μg/mL or 10 μg/mL in 200 μL media indicated below) under two protocols: the first for 4 hr in 5% FCS RPMI1640 media and the second in 10% FCS RPMI1640 media for 24 h. The supernatant is replaced with new media (200 μL) and MTT stock solution (10 μL, 5 mg/mL) is added to each well. After incubation for 1 hr the media are removed, DMSO (200 μL) is added to each well and the plates are shaken lightly for 1 hr prior to reading the absorbance at 550 nm. The percentage loss of cell viability is calculated for each well relative to vehicle (0.5% DMSO) treatment. Consequently an apparent increase in cell viability for drug treatment relative to vehicle is tabulated as a negative percentage.

Sequence of cSrc (P12931 whole entry): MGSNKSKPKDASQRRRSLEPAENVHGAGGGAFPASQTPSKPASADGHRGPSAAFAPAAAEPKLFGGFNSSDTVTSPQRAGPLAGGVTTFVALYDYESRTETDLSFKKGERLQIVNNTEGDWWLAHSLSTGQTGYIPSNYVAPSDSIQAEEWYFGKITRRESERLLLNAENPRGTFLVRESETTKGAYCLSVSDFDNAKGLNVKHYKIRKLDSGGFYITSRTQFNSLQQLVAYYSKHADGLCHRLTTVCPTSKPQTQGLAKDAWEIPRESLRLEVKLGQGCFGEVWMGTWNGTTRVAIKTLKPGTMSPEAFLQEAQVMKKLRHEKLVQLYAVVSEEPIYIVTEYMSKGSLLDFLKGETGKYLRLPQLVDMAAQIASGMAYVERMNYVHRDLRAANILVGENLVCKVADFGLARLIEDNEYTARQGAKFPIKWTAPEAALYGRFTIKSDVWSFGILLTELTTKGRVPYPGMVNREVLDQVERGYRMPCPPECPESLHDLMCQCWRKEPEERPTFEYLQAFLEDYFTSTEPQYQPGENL

Turning to `COc1ccc(-n2nc(C(C)C)cc2NC(=O)Nc2ccc(Oc3cc(Nc4cc(OC)cc(C(=O)NCCN5CCOCC5)c4)ncn3)c3ccccc23)cc1` [Example 14, 3-((6-((4-(3-(3-isopropyl-1-(4-methoxyphenyl)-1H-pyrazol-5-yl)ureido)naphthalen-1-yl)oxy)pyrimidin-4-yl)amino)-5-methoxy-N-(2-morpholinoethyl)benzamide], the half-maximal inhibitory concentration (IC50) in data set [1] is 3 nM; on Syk it was more than 1300 nM; at cSrc, 4 nM; against GSK3α it was 355 nM; in data set [3], 5 nM. Moreover, the EC50 in data set [2] stood at 1.2 nM. Further, the “Cell viability at time point in d-U937 cells, 4 h” value with d-U937 cells is “−ve (−ve and +ve indicate that the value is below and above respectively, the no significant effect threshold, defined as 30% inhibition at 1 μg/mL at the time point indicated)”. Besides, in the data set on d-U937 cells, the “Cell viability at time point in d-U937 cells, 24 h” value (from here on “Cell viability at time point … 24 h”) is “+ve (−ve and +ve indicate that the value is below and above respectively, the no significant effect threshold, defined as 30% inhibition at 1 μg/mL at the time point indicated)”.

With `COc1ccc(-n2nc(C(C)C)cc2NC(=O)Nc2ccc(Oc3ccnc(Nc4cc(OC)cc(C(=O)NCCN5CCOCC5)c4)c3)c3ccccc23)cc1` [Example 15, 3-((4-((4-(3-(3-isopropyl-1-(4-methoxyphenyl)-1H-pyrazol-5-yl)ureido)naphthalen-1-yl)oxy)pyridin-2-yl)amino)-5-methoxy-N-(2-morpholinoethyl)benzamide], the IC50 was determined as 26.2 nM in data set [1]; 16 nM against Syk; 4 nM at cSrc; 3180 nM at GSK3α; 1.6 nM in data set [3]. Moreover, the EC50 in data set [2] was determined as 0.4 nM. Moreover, in the data set on d-U937 cells, the “Cell viability at time point in d-U937 cells, 4 h” value is “−ve (−ve and +ve indicate that the value is below and above respectively, the no significant effect threshold, defined as 30% inhibition at 1 μg/mL at the time point indicated)”. For the same molecule, in the data set on d-U937 cells, the “Cell viability at time point … 24 h” value was “−ve (−ve and +ve indicate that the value is below and above respectively, the no significant effect threshold, defined as 30% inhibition at 1 μg/mL at the time point indicated)”.

Consider `CNC(=O)c1cccc(Nc2nccc(Oc3ccc(NC(=O)Nc4cc(C(C)(C)C)nn4-c4ccc(C)cc4)c4ccccc34)n2)c1` [Example 16, 3-((4-((4-(3-(3-(tert-butyl)-1-(p-tolyl)-1H-pyrazol-5-yl)ureido)naphthalen-1-yl)oxy)pyrimidin-2-yl)amino)-N-methylbenzamide], for which the IC50 turned out to be 1.9 nM in data set [1]; 1390 nM on Syk; 9 nM at cSrc; 1400 nM against GSK3α; 1.7 nM in data set [3]. Also, the EC50 in data set [2] was found to be 1.3 nM. The “Cell viability at time point in d-U937 cells, 4 h” value in the data set on d-U937 cells was “−ve (−ve and +ve indicate that the value is below and above respectively, the no significant effect threshold, defined as 30% inhibition at 1 μg/mL at the time point indicated)”. Moreover, the “Cell viability at time point … 24 h” value in the data set with d-U937 cells is “−ve (−ve and +ve indicate that the value is below and above respectively, the no significant effect threshold, defined as 30% inhibition at 1 μg/mL at the time point indicated)”.

Turning to `CCCNC(=O)c1cccc(Nc2nccc(Oc3ccc(NC(=O)Nc4cc(C(C)(C)C)nn4-c4ccc(OC)cc4)c4ccccc34)n2)c1` [Example 17, 3-(4-(4-(3-(3-tert-butyl-1-(4-methoxyphenyl)-1H-pyrazol-5-yl)ureido)naphthalen-1-yloxy)pyrimidin-2-ylamino)-N-propylbenzamide], the concentration for half-maximal inhibition (IC50) worked out at 2.6 nM in data set [1]; 35 nM at Syk; 3 nM against cSrc; 309 nM against GSK3α; 1.8 nM in data set [3]. In addition, the EC50 in data set [2] came to 1.5 nM. For the same molecule, in the data set on d-U937 cells, the “Cell viability at time point in d-U937 cells, 4 h” value was “−ve (−ve and +ve indicate that the value is below and above respectively, the no significant effect threshold, defined as 30% inhibition at 1 μg/mL at the time point indicated)”. Further, the “Cell viability at time point … 24 h” value in the data set with d-U937 cells was “−ve (−ve and +ve indicate that the value is below and above respectively, the no significant effect threshold, defined as 30% inhibition at 1 μg/mL at the time point indicated)”.

Take `Cc1ccc(-n2nc(C(C)(C)C)cc2NC(=O)Nc2ccc(Oc3ccnc(Nc4cccc(C(=O)NCCN(C)C)c4)n3)c3ccccc23)cc1` [Example 18, 3-((4-((4-(3-(3-(tert-butyl)-1-(p-tolyl)-1H-pyrazol-5-yl)ureido)naphthalen-1-yl)oxy)pyrimidin-2-yl)amino)-N-(2-(dimethylamino)ethyl)benzamide]: the IC50 in data set [1] is 2.3 nM; against Syk, more than 1440 nM; against cSrc, 7 nM; against GSK3α it was 295 nM; in data set [3], 1.8 nM. The EC50 in data set [2] came to 1.5 nM. Besides, in the data set with d-U937 cells, the “Cell viability at time point in d-U937 cells, 4 h” value was “−ve (−ve and +ve indicate that the value is below and above respectively, the no significant effect threshold, defined as 30% inhibition at 1 μg/mL at the time point indicated)”. Also, the “Cell viability at time point … 24 h” value with d-U937 cells is “−ve (−ve and +ve indicate that the value is below and above respectively, the no significant effect threshold, defined as 30% inhibition at 1 μg/mL at the time point indicated)”.

A word on the IC50: it is the concentration needed to halve the response being measured.
